According to patent US7329518B2, “Enzyme for producing optically active pyridineethanol derivatives” (Kaneka Corporation, priority 1999, dated 2008):

Legend:
FPDH [1] = assay: Oxidation activity of FPDH against various compounds as substrates; type: biochemical, Candida maris IFO 10003; conditions: substrate 1 mM; 5-(1-(R)-hydroxyethyl)furo[2,3-c]pyridine = 100%; 0.25 mM NAD+, pH 8.0, 30° C.
Procedure: Further, FPDH was examined for oxidation activity against various compounds. The oxidation activity was measured by allowing the reaction to proceed at 30° C. for 3 minutes in 3.0 ml of a reaction mixture containing 1 mM substrate, 0.25 mM NAD^+, 0.3% (vol/vol) dimethyl sulfoxide and 0.05 ml of the enzyme solution in 100 mM phosphate buffer (pH 8.0) and measuring the increase in absorbance at the wavelength 340 nm. These conditions were employed as standard reaction conditions for oxidizing activity substrate measurement. The enzyme activity reducing 1 μmole of NAD^+ to NADH in one minute under these reaction conditions was defined as 1 unit. The data shown in Table 10 are relative activities with the oxidation activity against the substrate 5-(1-(R)-hydroxyethyl)furo[2,3-c]pyridine being taken as 100%.

FPDH [2] = assay: Optimal temperature and optimal pH for the activity of FPDH; type: biochemical, Candida maris IFO 10003; conditions: pH varied 3.5 to 9.0; acetate, phosphate and Tris-hydrochloride buffer
Procedure: Hereafter, the reducing activity was measured by allowing the reaction to proceed at 30° C. for 3 minutes in 3.0 ml of a reaction mixture containing 1 mM 5-acetylfuro[2,3-c]pyridine (substrate), 0.25 mM NADH, 0.3% (vol/vol) dimethyl sulfoxide and 0.05 ml of the enzyme solution in 100 mM phosphate buffer (pH 6.5) and measuring the decrease in absorbance at the wavelength 340 nm. These conditions were employed as standard reaction conditions for reducing activity measurement. The enzyme activity oxidizing 1 μmole of NADH to NAD^+ in one minute under these reaction conditions was defined as 1 unit.
Activity measurements were conducted under the standard reaction conditions for reducing activity measurement as described in Example 14 except that the temperature alone was varied from 20 to 80° C.
Activity measurements were conducted under the standard reaction conditions for reducing activity measurement as described in Example 14 while varying the pH within the range of 3.5 to 9.0 using acetate buffer, phosphate buffer and Tris-hydrochloride buffer as the buffer solution.

| Molecule | Relative activity (oxidation activity) (FPDH [1]) [%] | Optimal pH (FPDH [2]) |
| --- | --- | --- |
| CC(O)c1ccncc1 (stereo not drawn) [1-(4-Pyridyl)ethanol] | 24 |  |
| CC(O)c1cccnc1 (stereo not drawn) [1-(3-Pyridyl)ethanol] | 110 |  |
| CC(C)O [Isopropanol] | 226 |  |
| CC(O)c1ccccn1 (stereo not drawn) [1-(2-Pyridyl)ethanol] | 23 |  |
| CC(O)CCc1ccccc1 (stereo not drawn) [4-Phenyl-2-butanol] | 219 |  |
| FPDH: purified NADH-dependent enzyme from Candida maris IFO 10003 reducing 5-acetylfuro[2,3-c]pyridine to the (R)-alcohol; SEQ ID NO:1 (protein, listed as Candida maris) MSYNFANKVLIVTGGLSGIGLAVAKKFLQLGAKVTISDISATEKYNTVVGEFKTEGIDVKNVQYIQADASKEADNEKLISETLSAFGDLDYVCANAGIATFTQTTDISYDVWRKVTSINLDGVFMLDKLAAQYFLSKNKPGAIVNMGSIHSYVAAPGLSHYGAAKGGLKLLTQTMALEYAAKGIRVNSVNPGYIKTPLLDICPKEHMDYLITQHPIGRLGKPEEIASAVAFLCSDEATFINGISLLVDGGYTAR |  | 5.0-6.0 |
